Laboratory results reported in PubChem BioAssay AID1224914.

Biological target: Serine/threonine-protein kinase PAK 2 (Homo sapiens) (UniProt Q13177)
Test: PubChem AID 1224914
Conditions: PAK2 binding assay

Sequence of Serine/threonine-protein kinase PAK 2 (Homo sapiens) (Q13177 whole entry, looked up): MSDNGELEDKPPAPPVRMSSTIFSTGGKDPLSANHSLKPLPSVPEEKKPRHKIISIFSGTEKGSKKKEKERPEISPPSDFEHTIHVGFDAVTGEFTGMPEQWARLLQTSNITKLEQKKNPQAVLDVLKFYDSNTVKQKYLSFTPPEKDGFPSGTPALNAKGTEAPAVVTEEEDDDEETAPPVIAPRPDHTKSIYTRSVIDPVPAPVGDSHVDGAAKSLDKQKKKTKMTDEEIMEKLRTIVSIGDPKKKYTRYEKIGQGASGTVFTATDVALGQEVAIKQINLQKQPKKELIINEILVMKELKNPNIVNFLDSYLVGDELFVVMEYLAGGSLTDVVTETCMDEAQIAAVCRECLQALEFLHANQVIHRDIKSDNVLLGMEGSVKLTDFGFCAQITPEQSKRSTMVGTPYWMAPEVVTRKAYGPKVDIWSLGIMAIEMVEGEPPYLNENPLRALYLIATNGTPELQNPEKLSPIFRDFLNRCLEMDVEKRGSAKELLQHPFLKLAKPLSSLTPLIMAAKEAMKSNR

Kd: 400 nM
SMILES: CC(C)NC(=O)N1CC[C@H](N=C2Nc3cc(F)ccc3N(CC(F)F)c3ccc(Cl)cc32)C1
